Source: ChEMBL document CHEMBL4270561, “Biological activity of doubly modified salinomycin analogs - Evaluation in vitro and ex vivo” (Eur J Med Chem, 2018)

What was measured:
[1] = Antiproliferative activity against human ALL5 cells after 120 hrs by MTT assay; assay type: functional, cell-based; conditions: ALL5, 120 h
LoVo = assay: Antiproliferative activity against human LoVo cells after 72 hrs by SRB assay; assay type: functional, cell-based
[2] = Antiproliferative activity against human LoVo/DX cells after 72 hrs by SRB assay; assay type: functional, cell-based
JIMT-1 = assay: Antiproliferative activity against human JIMT1 cells after 72 hrs by SRB assay; assay type: functional, cell-based; conditions: JIMT-1, 72 h
SK-BR-3 [3] = assay: Antiproliferative activity against human SK-BR-3 cells after 72 hrs by SRB assay; assay type: functional, cell-based; conditions: SK-BR-3, 72 h
MCF7 = assay: Antiproliferative activity against human MCF7 cells after 72 hrs by SRB assay; assay type: functional, cell-based; conditions: MCF7, 72 h
MCF-10A [4] = assay: Antiproliferative activity against human MCF10A cells at 100 ug/ml after 72 hrs by SRB assay relative to control; assay type: cell-based
[5] = Resistance index, ratio of IC50 for human LoVo/DX cells to IC50 for human LoVo cells; assay type: functional
[6] = Cell cycle arrest in human ALL5 cells assessed as accumulation at sub-G1 phase at 5 times antiproliferative IC50 after 24 hrs by propidium iodide staining based flow cytometry (reference value: 6.07%); assay type: functional
[7] = Cell cycle arrest in human ALL5 cells assessed as accumulation at G0/G1 phase at 5 times antiproliferative IC50 after 24 hrs by propidium iodide staining based flow cytometry (reference value: 79.7%); assay type: functional
[8] = Cell cycle arrest in human ALL5 cells assessed as accumulation at S-phase at 5 times antiproliferative IC50 after 24 hrs by propidium iodide staining based flow cytometry (reference value: 6.76%); assay type: functional
[9] = Cell cycle arrest in human ALL5 cells assessed as accumulation at G2/M-phase at 5 times antiproliferative IC50 after 24 hrs by propidium iodide staining based flow cytometry (reference value: 7.98%); assay type: functional
[10] = Cell cycle arrest in human ALL5 cells assessed as accumulation at sub-G1 phase at 5 times antiproliferative IC50 after 48 hrs by propidium iodide staining based flow cytometry (reference value: 7.8%); assay type: functional
[11] = Cell cycle arrest in human ALL5 cells assessed as accumulation at G0/G1 phase at 5 times antiproliferative IC50 after 48 hrs by propidium iodide staining based flow cytometry (reference value: 69.6%); assay type: functional
[12] = Cell cycle arrest in human ALL5 cells assessed as accumulation at S-phase at 5 times antiproliferative IC50 after 48 hrs by propidium iodide staining based flow cytometry (reference value: 9.82%); assay type: functional
[13] = Cell cycle arrest in human ALL5 cells assessed as accumulation at G2/M-phase at 5 times antiproliferative IC50 after 48 hrs by propidium iodide staining based flow cytometry (reference value: 13.2%); assay type: functional
[14] = Cell cycle arrest in human ALL5 cells assessed as accumulation at sub-G1 phase at 5 times antiproliferative IC50 after 96 hrs by propidium iodide staining based flow cytometry (reference value: 12%); assay type: functional
[15] = Cell cycle arrest in human ALL5 cells assessed as accumulation at G0/G1 phase at 5 times antiproliferative IC50 after 96 hrs by propidium iodide staining based flow cytometry (reference value: 69.8%); assay type: functional
[16] = Cell cycle arrest in human ALL5 cells assessed as accumulation at S-phase at 5 times antiproliferative IC50 after 96 hrs by propidium iodide staining based flow cytometry (reference value: 7.52%); assay type: functional
[17] = Cell cycle arrest in human ALL5 cells assessed as accumulation at G2/M-phase at 5 times antiproliferative IC50 after 96 hrs by propidium iodide staining based flow cytometry (reference value: 11.1%); assay type: functional
MCF-10A [18] = assay: Antiproliferative activity against human MCF10A cells after 72 hrs by SRB assay; assay type: cell-based
[19] = Antiproliferative activity against human ALL5 cells at 10 uM after 120 hrs by MTT assay relative to control; assay type: functional
[20] = Selectivity index, ratio of IC50 for human MCF10A cells to IC50 for human LoVo/DX cells; assay type: toxicity; conditions: MCF10A cells versus LoVo/DX cells, read-out: Ratio IC50
[21] = Selectivity index, ratio of IC50 for human MCF10A cells to IC50 for human LoVo cells; assay type: toxicity; conditions: MCF10A cells versus LoVo cells, read-out: Ratio IC50
[22] = Selectivity index, ratio of IC50 for human MCF10A cells to IC50 for human JIMT1 cells; assay type: toxicity; conditions: MCF10A cells versus JIMT1 cells, read-out: Ratio IC50
[23] = Selectivity index, ratio of IC50 for human MCF10A cells to IC50 for human SK-BR-3 cells; assay type: toxicity; conditions: MCF10A cells versus SK-BR-3 cells, read-out: Ratio IC50
[24] = Selectivity index, ratio of IC50 for human MCF10A cells to IC50 for human MCF7 cells; assay type: toxicity; conditions: MCF10A cells versus MCF7 cells, read-out: Ratio IC50
SK-BR-3 [25] = assay: Antiproliferative activity against human SK-BR-3 cells at 100 ug/ml after 72 hrs by SRB assay relative to control; assay type: functional
[26] = Selectivity index, ratio of IC50 for human MCF10A cells to IC50 for human ALL5 cells; assay type: toxicity; conditions: MCF10A cells versus ALL5 cells, read-out: Ratio IC50

Structure (SMILES)	IC50 [1] [µM]	IC50 (LoVo) [µM]	IC50 [2] [µM]	IC50 (JIMT-1) [µM]	IC50 (SK-BR-3 [3]) [µM]	IC50 (MCF7) [µM]	Activity (MCF-10A [4])	Ratio IC50 [5]	Activity [6] [%]	Activity [7] [%]	Activity [8] [%]	Activity [9] [%]	Activity [10] [%]	Activity [11] [%]	Activity [12] [%]	Activity [13] [%]	Activity [14] [%]	Activity [15] [%]	Activity [16] [%]	Activity [17] [%]	other results
C#CCNC(=O)[C@H](CC)[C@H]1CC[C@H](C)[C@H]([C@@H](C)[C@H](O)[C@H](C)C(=O)[C@H](CC)[C@H]2O[C@]3(C=C[C@@H](OC(=O)OCC)[C@]4(CC[C@@](C)([C@H]5CC[C@](O)(CC)[C@H](C)O5)O4)O3)[C@H](C)C[C@@H]2C)O1	17	4.7	3.8	7.9	16	4.9	<= 50%	0.81	–	–	–	–	–	–	–	–	–	–	–	–	–
C#CCOC(=O)[C@H](CC)[C@H]1CC[C@H](C)[C@H]([C@@H](C)[C@H](O)[C@H](C)C(=O)[C@H](CC)[C@H]2O[C@]3(C=C[C@@H](OC(=O)NCC)[C@]4(CC[C@@](C)([C@H]5CC[C@](O)(CC)[C@H](C)O5)O4)O3)[C@H](C)C[C@@H]2C)O1	6.9	5.2	3.4	7.4	25	5	<= 50%	0.65	6.58	78.8	5.16	9.7	19.6	61.1	5.8	13.8	43.6	42	3.67	10.9	–
C#CCNC(=O)[C@H](CC)[C@H]1CC[C@H](C)[C@H]([C@@H](C)[C@H](O)[C@H](C)C(=O)[C@H](CC)[C@H]2O[C@]3(C=C[C@@H](O)[C@]4(CC[C@@](C)([C@H]5CC[C@](O)(CC)[C@H](C)O5)O4)O3)[C@H](C)C[C@@H]2C)O1	–	7.7	3.1	29	31	10	–	0.4	–	–	–	–	–	–	–	–	–	–	–	–	IC50 (MCF-10A [18]): 62 µM; Activity [19]: <=50%; selectivity ratio [20]: 20; selectivity ratio [21]: 8.1; selectivity ratio [22]: 2.1; selectivity ratio [23]: 2; selectivity ratio [24]: 6.2
C#CCOC(=O)[C@H](CC)[C@H]1CC[C@H](C)[C@H]([C@@H](C)[C@H](O)[C@H](C)C(=O)[C@H](CC)[C@H]2O[C@]3(C=C[C@@H](OC(C)=O)[C@]4(CC[C@@](C)([C@H]5CC[C@](O)(CC)[C@H](C)O5)O4)O3)[C@H](C)C[C@@H]2C)O1	2.6	12	5.2	27	–	7.4	<= 50%	0.43	5.15	80.2	5.99	9.12	9.68	73.5	5.62	11.5	26.8	57.7	5.06	10.6	Activity (SK-BR-3 [25]): <=50%
CC[C@@H](C(=O)[C@@H](C)[C@@H](O)[C@H](C)[C@@H]1O[C@@H]([C@@H](CC)C(=O)OCC(F)(F)F)CC[C@@H]1C)[C@H]1O[C@]2(C=C[C@@H](OC(C)=O)[C@]3(CC[C@@](C)([C@H]4CC[C@](O)(CC)[C@H](C)O4)O3)O2)[C@H](C)C[C@@H]1C	–	8.7	18	39	–	12	<= 50%	2.1	–	–	–	–	–	–	–	–	–	–	–	–	Activity [19]: <=50%; Activity (SK-BR-3 [25]): <=50%
CCOC(=O)O[C@@H]1C=C[C@]2(O[C@H]([C@@H](CC)C(=O)[C@@H](C)[C@@H](O)[C@H](C)[C@@H]3O[C@@H]([C@@H](CC)C(=O)NCCc4ccc(F)cc4)CC[C@@H]3C)[C@@H](C)C[C@H]2C)O[C@@]12CC[C@@](C)([C@H]1CC[C@](O)(CC)[C@H](C)O1)O2	3.7	4.7	6.5	7	9.9	3.9	<= 50%	1.4	6.39	82.5	4.95	6.54	7.78	86.4	1.02	4.85	27.5	69.4	1.35	1.94	–
C#CCNC(=O)[C@H](CC)[C@H]1CC[C@H](C)[C@H]([C@@H](C)[C@H](O)[C@H](C)C(=O)[C@H](CC)[C@H]2O[C@]3(C=C[C@@H](OC(=O)NCC)[C@]4(CC[C@@](C)([C@H]5CC[C@](O)(CC)[C@H](C)O5)O4)O3)[C@H](C)C[C@@H]2C)O1	3.7	4.2	3.8	5.9	7.7	4.7	–	0.9	12.2	77.8	4.1	6.08	26.1	65.9	1.8	6.44	70.8	25.2	2.73	1.55	IC50 (MCF-10A [18]): 82 µM; selectivity ratio [20]: 22; selectivity ratio [26]: 22; selectivity ratio [21]: 20; selectivity ratio [22]: 14; selectivity ratio [23]: 11; selectivity ratio [24]: 17
